Assay results published in ChEMBL document CHEMBL4765362, “Thirty Years of HDAC Inhibitors: 2020 Insight and Hindsight” (J Med Chem, 2020).
pIC50: −log10 of the molar value. Blank lines part the entries; values can stand above or below the compound they belong to.

How the values were obtained:
[1] = biological target: T1, Polyamine deacetylase HDAC10 (Danio rerio, UniProt F1QCV2); assay: Inhibition of zebrafish HDAC10 (2 to 675 residues) expressed in Escherichia coli BL21(DE3) cells using N-acetylputrescine as substrate preincubated for 10 mins followed by substrate and measured after 45 to 60 mins by liquid chromatography-mass spectrometry
T1 sequence (F1QCV2 whole entry): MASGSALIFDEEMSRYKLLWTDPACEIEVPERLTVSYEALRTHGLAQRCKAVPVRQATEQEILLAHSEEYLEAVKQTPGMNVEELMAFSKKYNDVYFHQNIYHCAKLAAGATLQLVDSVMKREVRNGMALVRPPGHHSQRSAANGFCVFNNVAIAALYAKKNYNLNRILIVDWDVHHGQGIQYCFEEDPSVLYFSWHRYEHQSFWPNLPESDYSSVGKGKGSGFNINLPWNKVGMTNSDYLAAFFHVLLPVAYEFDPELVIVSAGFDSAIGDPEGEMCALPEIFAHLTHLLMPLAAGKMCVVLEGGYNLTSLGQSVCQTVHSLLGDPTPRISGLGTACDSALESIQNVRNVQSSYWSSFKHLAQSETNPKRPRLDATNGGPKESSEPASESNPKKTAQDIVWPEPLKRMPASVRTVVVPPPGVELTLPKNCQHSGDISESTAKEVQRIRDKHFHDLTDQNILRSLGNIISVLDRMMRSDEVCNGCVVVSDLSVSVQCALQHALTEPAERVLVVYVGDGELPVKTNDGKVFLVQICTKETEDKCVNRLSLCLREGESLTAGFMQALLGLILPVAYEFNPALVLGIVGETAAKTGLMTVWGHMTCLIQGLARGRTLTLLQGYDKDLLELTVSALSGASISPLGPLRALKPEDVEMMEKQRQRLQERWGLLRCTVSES

[2] = biological target: T2, Polyamine deacetylase HDAC10 (Homo sapiens, UniProt Q969S8); assay: Inhibition of HDAC10 (unknown origin)
T2 sequence (Q969S8 whole entry): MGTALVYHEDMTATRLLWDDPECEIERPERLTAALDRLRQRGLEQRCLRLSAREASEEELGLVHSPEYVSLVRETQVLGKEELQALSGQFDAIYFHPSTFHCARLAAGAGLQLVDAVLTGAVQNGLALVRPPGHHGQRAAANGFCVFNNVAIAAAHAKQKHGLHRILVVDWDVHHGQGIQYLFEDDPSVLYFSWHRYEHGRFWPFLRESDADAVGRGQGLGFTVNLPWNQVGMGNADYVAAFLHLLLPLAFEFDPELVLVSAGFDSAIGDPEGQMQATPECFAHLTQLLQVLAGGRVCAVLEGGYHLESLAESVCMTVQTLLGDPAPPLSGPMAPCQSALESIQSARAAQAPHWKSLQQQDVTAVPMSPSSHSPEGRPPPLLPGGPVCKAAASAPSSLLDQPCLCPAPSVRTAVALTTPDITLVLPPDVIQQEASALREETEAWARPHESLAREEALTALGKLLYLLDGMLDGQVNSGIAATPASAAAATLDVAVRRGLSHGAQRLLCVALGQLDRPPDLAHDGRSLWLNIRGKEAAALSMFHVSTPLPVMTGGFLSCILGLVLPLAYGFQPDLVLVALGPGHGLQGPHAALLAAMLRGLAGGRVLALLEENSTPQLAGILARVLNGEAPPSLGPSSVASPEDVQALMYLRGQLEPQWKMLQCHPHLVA

Histone deacetylase 11 = biological target: T3, Histone deacetylase 11 (Homo sapiens, UniProt Q96DB2); assay: Inhibition of HDAC11 (unknown origin)
T3 sequence (Q96DB2 whole entry): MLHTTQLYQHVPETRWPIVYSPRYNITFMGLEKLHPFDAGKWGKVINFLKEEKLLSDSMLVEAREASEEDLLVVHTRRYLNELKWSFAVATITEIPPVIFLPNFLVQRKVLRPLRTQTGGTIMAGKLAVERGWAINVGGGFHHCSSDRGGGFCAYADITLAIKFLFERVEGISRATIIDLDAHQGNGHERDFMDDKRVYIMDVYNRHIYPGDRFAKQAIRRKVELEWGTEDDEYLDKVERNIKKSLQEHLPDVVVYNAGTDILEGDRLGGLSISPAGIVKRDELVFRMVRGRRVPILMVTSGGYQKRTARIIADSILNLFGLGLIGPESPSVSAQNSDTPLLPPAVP

[3] = biological target: Histone deacetylase 3/Nuclear receptor corepressor 2 (HDAC3/NCoR2) (Homo sapiens, UniProt O15379); assay: Inhibition of His-tagged GST-fused human HDAC3/NcoR2 expressed in sf9 cells using acetyl-lysine tripeptide as substrate preincubated for 10 mins followed by substrate addition and shaken for 5 secs and measured over 30 mins
Histone deacetylase 4 = Histone deacetylase 4 (Homo sapiens, UniProt P56524); assay: Inhibition of human HDAC4 expressed in baculovirus infected sf9 cells using acetyl-lysine tripeptide as substrate preincubated for 10 mins followed by substrate addition and shaken for 5 secs and measured over 30 mins
Histone deacetylase 5 = Histone deacetylase 5 (Homo sapiens, UniProt Q9UQL6); assay: Inhibition of human HDAC5 using acetyl-lysine tripeptide as substrate preincubated for 10 mins followed by substrate addition and shaken for 5 secs and measured over 30 mins
[4] = biological target: T4, Protein deacetylase HDAC6 (Homo sapiens, UniProt Q9UBN7); assay: Inhibition of HDAC6 (unknown origin) using acetyl-lysine tripeptide as substrate preincubated for 10 mins followed by substrate addition and shaken for 5 secs and measured over 30 mins
T4 sequence (Q9UBN7 whole entry): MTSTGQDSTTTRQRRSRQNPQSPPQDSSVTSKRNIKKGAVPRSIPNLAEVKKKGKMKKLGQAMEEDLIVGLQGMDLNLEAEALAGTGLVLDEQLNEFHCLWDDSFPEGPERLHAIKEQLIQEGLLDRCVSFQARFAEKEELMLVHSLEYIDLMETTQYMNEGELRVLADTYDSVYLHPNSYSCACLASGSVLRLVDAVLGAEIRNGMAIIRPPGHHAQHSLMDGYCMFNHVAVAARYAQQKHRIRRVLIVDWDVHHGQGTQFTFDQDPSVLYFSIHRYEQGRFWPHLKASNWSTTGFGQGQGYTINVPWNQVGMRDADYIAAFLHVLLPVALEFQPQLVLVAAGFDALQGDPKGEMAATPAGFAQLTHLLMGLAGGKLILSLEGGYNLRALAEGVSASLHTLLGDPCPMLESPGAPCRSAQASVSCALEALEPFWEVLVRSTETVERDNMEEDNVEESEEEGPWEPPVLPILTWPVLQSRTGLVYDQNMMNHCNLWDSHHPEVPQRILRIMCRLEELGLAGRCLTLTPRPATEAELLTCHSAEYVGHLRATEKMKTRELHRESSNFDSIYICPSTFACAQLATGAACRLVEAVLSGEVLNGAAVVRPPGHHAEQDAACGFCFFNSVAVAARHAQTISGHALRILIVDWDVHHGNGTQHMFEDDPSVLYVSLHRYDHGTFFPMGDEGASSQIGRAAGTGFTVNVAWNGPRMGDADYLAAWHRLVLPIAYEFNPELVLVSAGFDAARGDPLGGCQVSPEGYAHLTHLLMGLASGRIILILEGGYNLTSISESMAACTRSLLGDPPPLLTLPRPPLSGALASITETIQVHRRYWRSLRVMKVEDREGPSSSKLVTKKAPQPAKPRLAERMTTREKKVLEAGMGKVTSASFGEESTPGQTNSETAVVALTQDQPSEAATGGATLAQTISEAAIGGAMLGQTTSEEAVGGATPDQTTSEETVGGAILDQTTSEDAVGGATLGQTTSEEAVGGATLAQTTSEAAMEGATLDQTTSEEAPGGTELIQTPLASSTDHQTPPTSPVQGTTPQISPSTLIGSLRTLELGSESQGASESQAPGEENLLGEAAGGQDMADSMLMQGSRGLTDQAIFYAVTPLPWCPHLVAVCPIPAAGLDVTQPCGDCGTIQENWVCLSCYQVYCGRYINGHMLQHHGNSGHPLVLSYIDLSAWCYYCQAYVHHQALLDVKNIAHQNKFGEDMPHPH

Histone deacetylase 7 = biological target: T5, Histone deacetylase 7 (Homo sapiens, UniProt Q8WUI4); assay: Inhibition of human N-terminal GST-tagged HDAC7 (518 to end residues) expressed in baculovirus infected sf9 cells using acetyl-lysine tripeptide as substrate preincubated for 10 mins followed by substrate addition and shaken for 5 secs and measured over 30 mins
T5 sequence (Q8WUI4 whole entry): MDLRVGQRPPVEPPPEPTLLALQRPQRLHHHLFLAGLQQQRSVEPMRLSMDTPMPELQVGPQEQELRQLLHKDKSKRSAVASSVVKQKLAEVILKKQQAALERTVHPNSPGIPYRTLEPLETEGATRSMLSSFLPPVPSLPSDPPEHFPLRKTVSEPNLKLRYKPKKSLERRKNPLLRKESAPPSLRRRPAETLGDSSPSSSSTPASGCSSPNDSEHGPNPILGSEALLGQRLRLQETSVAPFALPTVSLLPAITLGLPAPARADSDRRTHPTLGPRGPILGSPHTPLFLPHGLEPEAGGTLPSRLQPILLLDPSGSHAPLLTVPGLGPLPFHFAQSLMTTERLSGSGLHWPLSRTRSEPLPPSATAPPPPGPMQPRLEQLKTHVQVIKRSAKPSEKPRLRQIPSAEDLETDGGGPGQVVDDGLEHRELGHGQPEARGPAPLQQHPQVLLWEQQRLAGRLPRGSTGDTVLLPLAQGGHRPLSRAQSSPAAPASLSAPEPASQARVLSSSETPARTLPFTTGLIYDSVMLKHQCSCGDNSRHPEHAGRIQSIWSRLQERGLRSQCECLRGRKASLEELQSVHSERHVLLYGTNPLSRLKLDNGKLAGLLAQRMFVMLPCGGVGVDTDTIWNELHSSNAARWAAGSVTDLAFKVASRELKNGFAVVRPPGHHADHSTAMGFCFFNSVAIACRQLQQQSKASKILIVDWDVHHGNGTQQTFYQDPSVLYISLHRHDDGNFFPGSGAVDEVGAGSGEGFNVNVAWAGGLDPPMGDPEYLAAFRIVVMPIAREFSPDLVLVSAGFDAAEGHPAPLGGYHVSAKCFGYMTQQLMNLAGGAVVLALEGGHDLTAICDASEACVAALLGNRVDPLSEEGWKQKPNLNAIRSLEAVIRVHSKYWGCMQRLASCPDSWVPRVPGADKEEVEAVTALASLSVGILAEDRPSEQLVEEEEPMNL

Histone deacetylase 8 = biological target: T6, Histone deacetylase 8 (Homo sapiens, UniProt Q9BY41); assay: Inhibition of recombinant human C-terminal His-tagged HDAC8 expressed in baculovirus infected sf9 cells using acetyl-lysine tripeptide as substrate preincubated for 10 mins followed by substrate addition and shaken for 5 secs and measured over 30 mins
T6 sequence (Q9BY41 whole entry): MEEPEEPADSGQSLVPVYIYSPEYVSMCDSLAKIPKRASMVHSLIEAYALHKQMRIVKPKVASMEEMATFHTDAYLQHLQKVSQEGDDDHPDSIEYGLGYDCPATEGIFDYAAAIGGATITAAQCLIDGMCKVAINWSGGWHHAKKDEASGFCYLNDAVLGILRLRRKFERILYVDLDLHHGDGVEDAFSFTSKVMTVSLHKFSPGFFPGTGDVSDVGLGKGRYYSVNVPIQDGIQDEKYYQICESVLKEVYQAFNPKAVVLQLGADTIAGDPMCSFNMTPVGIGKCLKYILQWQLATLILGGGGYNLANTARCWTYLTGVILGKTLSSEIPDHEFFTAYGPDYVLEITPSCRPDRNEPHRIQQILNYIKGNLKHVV

Histone deacetylase 9 = Histone deacetylase 9 (Homo sapiens, UniProt Q9UKV0); assay: Inhibition of C-terminal His-tagged human HDAC9 (604 to 1066 residues) expressed in baculovirus infected sf9 cells using acetyl-lysine tripeptide as substrate preincubated for 10 mins followed by substrate addition and shaken for 5 secs and measured over 30 mins
Histone deacetylase 2 = Histone deacetylase 2 (Homo sapiens, UniProt Q92769); assay: Inhibition of human HDAC2 expressed in Sf9 cells using acetyl-lysine tripeptide as substrate preincubated for 10 mins followed by substrate addition and shaken for 5 secs and measured over 30 mins
Sequence of Histone deacetylase 2 (Q92769 whole entry): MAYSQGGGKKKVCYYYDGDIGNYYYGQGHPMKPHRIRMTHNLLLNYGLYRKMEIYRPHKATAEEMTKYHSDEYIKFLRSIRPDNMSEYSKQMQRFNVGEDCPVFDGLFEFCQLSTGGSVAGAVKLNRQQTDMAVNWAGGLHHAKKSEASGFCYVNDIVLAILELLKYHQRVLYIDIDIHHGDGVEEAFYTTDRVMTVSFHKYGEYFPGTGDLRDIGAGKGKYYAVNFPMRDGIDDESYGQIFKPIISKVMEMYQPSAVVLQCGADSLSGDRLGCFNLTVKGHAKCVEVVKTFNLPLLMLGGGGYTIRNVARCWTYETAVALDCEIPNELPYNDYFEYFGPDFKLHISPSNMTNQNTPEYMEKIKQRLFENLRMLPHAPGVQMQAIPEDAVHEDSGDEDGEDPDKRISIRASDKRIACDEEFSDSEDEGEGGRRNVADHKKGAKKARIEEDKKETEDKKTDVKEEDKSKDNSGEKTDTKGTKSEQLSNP

Sequence of Histone deacetylase 4 (P56524 whole entry): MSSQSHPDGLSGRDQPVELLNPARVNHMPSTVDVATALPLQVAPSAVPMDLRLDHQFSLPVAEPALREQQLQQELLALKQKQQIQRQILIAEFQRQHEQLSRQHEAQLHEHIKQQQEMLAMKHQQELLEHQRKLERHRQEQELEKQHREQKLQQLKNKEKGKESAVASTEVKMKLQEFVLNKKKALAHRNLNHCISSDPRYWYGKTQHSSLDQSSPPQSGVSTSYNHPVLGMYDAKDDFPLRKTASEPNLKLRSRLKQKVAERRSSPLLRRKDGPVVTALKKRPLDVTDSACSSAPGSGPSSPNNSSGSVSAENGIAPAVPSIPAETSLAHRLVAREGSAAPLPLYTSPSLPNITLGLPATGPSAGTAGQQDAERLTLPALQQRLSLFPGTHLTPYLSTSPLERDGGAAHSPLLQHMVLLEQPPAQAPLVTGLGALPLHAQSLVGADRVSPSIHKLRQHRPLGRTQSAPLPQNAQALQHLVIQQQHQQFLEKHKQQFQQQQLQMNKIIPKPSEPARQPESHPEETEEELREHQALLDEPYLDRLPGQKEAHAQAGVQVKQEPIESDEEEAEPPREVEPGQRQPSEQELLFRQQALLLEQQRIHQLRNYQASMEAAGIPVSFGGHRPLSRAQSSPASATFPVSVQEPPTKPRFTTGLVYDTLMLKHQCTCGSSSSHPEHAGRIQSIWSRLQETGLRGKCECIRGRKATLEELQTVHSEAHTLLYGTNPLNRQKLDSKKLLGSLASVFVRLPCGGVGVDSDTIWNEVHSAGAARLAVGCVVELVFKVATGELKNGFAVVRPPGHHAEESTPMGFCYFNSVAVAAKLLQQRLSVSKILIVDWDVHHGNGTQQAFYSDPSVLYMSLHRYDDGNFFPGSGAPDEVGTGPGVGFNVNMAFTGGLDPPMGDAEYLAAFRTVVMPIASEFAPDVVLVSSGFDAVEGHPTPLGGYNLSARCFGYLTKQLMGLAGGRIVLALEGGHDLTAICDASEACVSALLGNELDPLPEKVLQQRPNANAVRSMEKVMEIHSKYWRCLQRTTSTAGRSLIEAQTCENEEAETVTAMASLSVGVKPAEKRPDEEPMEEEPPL
Sequence of Histone deacetylase 9 (Q9UKV0 whole entry, the tested form may be a part): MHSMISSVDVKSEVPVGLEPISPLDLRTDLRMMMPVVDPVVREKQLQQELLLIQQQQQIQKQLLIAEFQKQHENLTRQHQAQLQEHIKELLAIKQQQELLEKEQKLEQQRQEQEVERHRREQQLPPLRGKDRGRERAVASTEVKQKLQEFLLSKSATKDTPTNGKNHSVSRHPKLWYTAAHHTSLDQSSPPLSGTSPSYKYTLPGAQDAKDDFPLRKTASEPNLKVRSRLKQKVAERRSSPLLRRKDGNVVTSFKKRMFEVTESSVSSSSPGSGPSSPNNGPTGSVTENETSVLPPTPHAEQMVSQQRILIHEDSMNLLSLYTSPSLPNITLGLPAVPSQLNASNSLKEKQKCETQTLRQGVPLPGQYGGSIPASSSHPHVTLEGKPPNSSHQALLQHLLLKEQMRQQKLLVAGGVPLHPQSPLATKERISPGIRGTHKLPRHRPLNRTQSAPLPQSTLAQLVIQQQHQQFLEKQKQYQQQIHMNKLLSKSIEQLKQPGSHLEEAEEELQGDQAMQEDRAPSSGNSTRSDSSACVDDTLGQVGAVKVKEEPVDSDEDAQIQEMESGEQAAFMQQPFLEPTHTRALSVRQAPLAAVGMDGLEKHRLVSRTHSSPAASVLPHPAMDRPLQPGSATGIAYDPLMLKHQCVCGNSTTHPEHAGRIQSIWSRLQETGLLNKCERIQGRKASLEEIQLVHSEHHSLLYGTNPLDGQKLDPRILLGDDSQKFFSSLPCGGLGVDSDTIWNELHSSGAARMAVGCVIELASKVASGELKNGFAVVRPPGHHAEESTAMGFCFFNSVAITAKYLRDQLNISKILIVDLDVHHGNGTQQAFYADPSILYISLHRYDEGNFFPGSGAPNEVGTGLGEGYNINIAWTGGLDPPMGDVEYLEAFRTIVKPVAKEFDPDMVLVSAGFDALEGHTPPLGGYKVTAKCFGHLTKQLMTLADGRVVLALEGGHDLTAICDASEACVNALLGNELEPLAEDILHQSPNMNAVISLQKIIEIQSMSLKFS
Sequence of Histone deacetylase 5 (Q9UQL6 whole entry): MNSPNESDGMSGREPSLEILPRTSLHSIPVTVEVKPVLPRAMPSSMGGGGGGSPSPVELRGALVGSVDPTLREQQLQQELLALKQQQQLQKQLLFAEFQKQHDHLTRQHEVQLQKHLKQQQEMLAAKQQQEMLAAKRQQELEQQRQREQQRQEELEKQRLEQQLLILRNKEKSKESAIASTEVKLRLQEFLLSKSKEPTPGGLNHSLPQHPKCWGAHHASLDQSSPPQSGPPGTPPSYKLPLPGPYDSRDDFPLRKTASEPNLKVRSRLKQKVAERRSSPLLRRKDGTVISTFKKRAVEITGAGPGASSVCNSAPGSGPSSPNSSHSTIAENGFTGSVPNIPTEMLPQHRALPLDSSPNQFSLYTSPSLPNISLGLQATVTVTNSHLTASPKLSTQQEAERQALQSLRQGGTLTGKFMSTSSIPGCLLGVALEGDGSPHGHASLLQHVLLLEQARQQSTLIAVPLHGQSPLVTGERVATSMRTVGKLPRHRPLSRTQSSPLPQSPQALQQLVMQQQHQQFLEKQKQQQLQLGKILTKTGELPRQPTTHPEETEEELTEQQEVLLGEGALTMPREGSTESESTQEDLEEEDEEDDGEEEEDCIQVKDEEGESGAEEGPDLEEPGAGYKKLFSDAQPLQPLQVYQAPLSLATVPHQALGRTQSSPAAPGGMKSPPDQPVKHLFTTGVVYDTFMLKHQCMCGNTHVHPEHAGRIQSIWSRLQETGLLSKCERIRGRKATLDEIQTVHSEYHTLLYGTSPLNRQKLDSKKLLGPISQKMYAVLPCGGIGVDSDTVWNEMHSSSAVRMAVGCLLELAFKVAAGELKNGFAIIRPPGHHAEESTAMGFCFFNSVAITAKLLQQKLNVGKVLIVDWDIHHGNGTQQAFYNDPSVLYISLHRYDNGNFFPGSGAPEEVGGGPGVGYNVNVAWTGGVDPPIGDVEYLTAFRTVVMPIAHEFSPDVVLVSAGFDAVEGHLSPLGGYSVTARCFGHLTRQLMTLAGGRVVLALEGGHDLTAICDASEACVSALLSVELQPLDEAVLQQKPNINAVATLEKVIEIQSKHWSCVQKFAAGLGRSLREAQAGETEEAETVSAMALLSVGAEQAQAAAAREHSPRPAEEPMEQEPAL

pIC50 [1]: 6.92
SMILES: NCCCNCCCCCC(=O)NO

pIC50 [2]: 7.00 | pIC50 (Histone deacetylase 11): 6.40
SMILES: Nc1cc(F)ccc1NC(=O)c1ccc(CNC(=O)/C=C/c2cccnc2)cc1 [TUCIDINOSTAT]

SMILES: Nc1ccc(-c2cccs2)cc1NC(=O)c1ccc2nc(N3CCNCC3)ccc2c1
pIC50 [3]: 6.00 | pIC50 (Histone deacetylase 4): < 4.70 | pIC50 (Histone deacetylase 5): < 4.70 | pIC50 [4]: < 4.70 | pIC50 (Histone deacetylase 7): < 4.70 | pIC50 (Histone deacetylase 8): < 4.70 | pIC50 (Histone deacetylase 9): < 4.70 | pIC50 (Histone deacetylase 2): 7.59
